Tested on: MV-4-11 cells
Assay: Gene expression microarray analysis (Affymetrix PrimeView) and GSEA
Assay type: cell-based, human
Parameters: RFU PODN (11730768_x_at) / Fold change /veh PODN (11730768_x_at) / RFU LINC00158 (11744669_a_at) / Fold change /veh LINC00158 (11744669_a_at) / RFU DUSP10 (11751237_a_at) / Fold change /veh DUSP10 (11751237_a_at) / RFU ID3 (11757404_x_at) / Fold change /veh ID3 (11757404_x_at) / RFU PLEKHG5 (11737974_s_at) / Fold change /veh PLEKHG5 (11737974_s_at) / RFU LRRC4B (11730491_at) / Fold change /veh LRRC4B (11730491_at) / RFU GIMAP4 (11747438_a_at) / Fold change /veh GIMAP4 (11747438_a_at) / RFU KRT8 (11758183_x_at) / Fold change /veh KRT8 (11758183_x_at) / RFU CNN1 (11734310_a_at) / Fold change /veh CNN1 (11734310_a_at) / RFU VPS37D (11726825_at) / Fold change /veh VPS37D (11726825_at) / RFU C10orf10 (11716522_x_at) / Fold change /veh C10orf10 (11716522_x_at) / RFU KIR2DL2 /// KIR2DL4 /// KIR2DL5A /// KIR2DL5B /// KIR2DS1 /// KIR2DS2 /// KIR2DS3 /// KIR2DS4 /// KIR3DL3 /// KIR3DL3 /// KIR3DS1 (11738374_at) / Fold change /veh KIR2DL2 /// KIR2DL4 /// KIR2DL5A /// KIR2DL5B /// KIR2DS1 /// KIR2DS2 /// KIR2DS3 /// KIR2DS4 /// KIR3DL3 /// KIR3DL3 /// KIR3DS1 (11738374_at) / RFU C1QL1 (11718748_at) / Fold change /veh C1QL1 (11718748_at) / RFU TMPRSS4 (11747572_a_at) / Fold change /veh TMPRSS4 (11747572_a_at) / RFU HAMP (11756126_x_at) / Fold change /veh HAMP (11756126_x_at) / RFU RNFT2 (11725882_a_at) / Fold change /veh RNFT2 (11725882_a_at) / RFU NR4A2 (11747474_a_at) / Fold change /veh NR4A2 (11747474_a_at) / RFU ABCC12 (11746883_a_at) / Fold change /veh ABCC12 (11746883_a_at) / RFU TMEM136 (11760407_x_at) / Fold change /veh TMEM136 (11760407_x_at) / RFU CLDN22 /// WWC2 (11732394_at) / Fold change /veh CLDN22 /// WWC2 (11732394_at) / RFU HLA-DPB1 (11760878_x_at) / Fold change /veh HLA-DPB1 (11760878_x_at) / RFU SPINT1 (11716480_a_at) / Fold change /veh SPINT1 (11716480_a_at) / RFU GAP43 (11754022_s_at) / Fold change /veh GAP43 (11754022_s_at) / RFU A4GNT (11735810_at) / Fold change /veh A4GNT (11735810_at) / RFU PRB3 (11715151_x_at) / Fold change /veh PRB3 (11715151_x_at) / RFU TUBB4B (11761932_at) / Fold change /veh TUBB4B (11761932_at) / RFU CAPN14 (11732068_a_at) / Fold change /veh CAPN14 (11732068_a_at) / RFU TMCC2 (11721928_a_at) / Fold change /veh TMCC2 (11721928_a_at) / RFU IRGQ (11745062_a_at) / Fold change /veh IRGQ (11745062_a_at) / RFU FAM174B (11720279_a_at) / Fold change /veh FAM174B (11720279_a_at) / RFU TMPRSS4 (11748680_a_at) / Fold change /veh TMPRSS4 (11748680_a_at) / RFU FAM212B (11763350_a_at) / Fold change /veh FAM212B (11763350_a_at) / RFU PLEKHG5 (11743358_a_at) / Fold change /veh PLEKHG5 (11743358_a_at) / RFU ZSCAN30 (11745921_a_at) / Fold change /veh ZSCAN30 (11745921_a_at) / RFU CMKLR1 (11741424_a_at) / Fold change /veh CMKLR1 (11741424_a_at) / RFU LOC101060620 /// MAPK8IP1 (11723275_at) / Fold change /veh LOC101060620 /// MAPK8IP1 (11723275_at) / RFU SPTSSB (11747773_x_at) / Fold change /veh SPTSSB (11747773_x_at) / RFU PRSS12 (11739890_at) / Fold change /veh PRSS12 (11739890_at) / RFU BIN1 (11741810_x_at) / Fold change /veh BIN1 (11741810_x_at) / RFU WNT11 (11732464_a_at) / Fold change /veh WNT11 (11732464_a_at) / RFU C10orf10 (11716521_a_at) / Fold change /veh C10orf10 (11716521_a_at) / RFU C5orf56 (11738089_at) / Fold change /veh C5orf56 (11738089_at) / RFU CYB561 (11721691_x_at) / Fold change /veh CYB561 (11721691_x_at) / RFU ANKRD19P (11752326_a_at) / Fold change /veh ANKRD19P (11752326_a_at) / RFU OR2T12 /// OR2T33 /// OR2T8 (11738714_s_at) / Fold change /veh OR2T12 /// OR2T33 /// OR2T8 (11738714_s_at) / RFU VCAN (11748164_a_at) / Fold change /veh VCAN (11748164_a_at) / RFU JSRP1 (11732532_at) / Fold change /veh JSRP1 (11732532_at) / RFU KRTAP10-11 (11738290_x_at) / Fold change /veh KRTAP10-11 (11738290_x_at) / RFU MYO3A (11730013_a_at) / Fold change /veh MYO3A (11730013_a_at) / RFU EBF3 (11725865_a_at) / Fold change /veh EBF3 (11725865_a_at) / RFU CAMK2N1 (11719241_x_at) / Fold change /veh CAMK2N1 (11719241_x_at) / RFU C5orf56 (11738088_a_at) / Fold change /veh C5orf56 (11738088_a_at) / RFU OLFML3 (11715873_a_at) / Fold change /veh OLFML3 (11715873_a_at) / RFU LOC100653217 /// NTM (11731650_a_at) / Fold change /veh LOC100653217 /// NTM (11731650_a_at) / RFU MAPK11 (11762145_a_at) / Fold change /veh MAPK11 (11762145_a_at) / RFU FIZ1 (11724087_x_at) / Fold change /veh FIZ1 (11724087_x_at) / RFU OASL (11726364_x_at) / Fold change /veh OASL (11726364_x_at) / RFU SOX15 (11748057_x_at) / Fold change /veh SOX15 (11748057_x_at) / RFU CD79A (11719716_a_at) / Fold change /veh CD79A (11719716_a_at) / RFU HIST1H1D (11736915_at) / Fold change /veh HIST1H1D (11736915_at) / RFU CASKIN2 (11723855_a_at) / Fold change /veh CASKIN2 (11723855_a_at) / RFU LOC730098 (11760151_x_at) / Fold change /veh LOC730098 (11760151_x_at) / RFU OR4N2 (11742367_at) / Fold change /veh OR4N2 (11742367_at) / RFU PRRT2 (11749266_a_at) / Fold change /veh PRRT2 (11749266_a_at) / RFU SNX32 (11753110_a_at) / Fold change /veh SNX32 (11753110_a_at) / RFU CDHR5 (11726645_a_at) / Fold change /veh CDHR5 (11726645_a_at) / RFU RCAN1 (11760418_a_at) / Fold change /veh RCAN1 (11760418_a_at) / RFU FAM167A (11723789_a_at) / Fold change /veh FAM167A (11723789_a_at) / RFU FAM26E (11764081_at) / Fold change /veh FAM26E (11764081_at) / RFU ISYNA1 (11749810_s_at) / Fold change /veh ISYNA1 (11749810_s_at) / RFU ACY1 (11761880_at) / Fold change /veh ACY1 (11761880_at) / RFU 11764098_at / Fold change /veh 11764098_at / RFU SAMD14 (11745864_x_at) / Fold change /veh SAMD14 (11745864_x_at) / RFU NPB (11741838_a_at) / Fold change /veh NPB (11741838_a_at) / RFU TMPRSS6 (11731388_a_at) / Fold change /veh TMPRSS6 (11731388_a_at) / RFU KRTAP10-2 (11738614_at) / Fold change /veh KRTAP10-2 (11738614_at) / RFU ARHGAP8 /// PRR5-ARHGAP8 (11727945_x_at) / Fold change /veh ARHGAP8 /// PRR5-ARHGAP8 (11727945_x_at) / RFU KRTAP5-7 /// NADSYN1 (11734609_at) / Fold change /veh KRTAP5-7 /// NADSYN1 (11734609_at) / RFU RASL12 (11751679_a_at) / Fold change /veh RASL12 (11751679_a_at) / RFU CDKN2B (11736163_a_at) / Fold change /veh CDKN2B (11736163_a_at) / RFU PRF1 (11729649_at) / Fold change /veh PRF1 (11729649_at) / RFU, ZNF638 /// ZNF638-IT1 / Fold change vs veh, ZNF638 /// ZNF638-IT1 / RFU, PANK3 / Fold change vs veh, PANK3 / RFU, SH3YL1 / Fold change vs veh, SH3YL1 / RFU, ZEB2 / Fold change vs veh, ZEB2 / RFU, NRIP1 / Fold change vs veh, NRIP1 / RFU, PTTG1IP / Fold change vs veh, PTTG1IP / RFU, CAPN2 / Fold change vs veh, CAPN2 / RFU, MED14 / Fold change vs veh, MED14 / RFU, SNORA58 / Fold change vs veh, SNORA58 / RFU, C1orf63 / Fold change vs veh, C1orf63 / RFU, LRRFIP1 / Fold change vs veh, LRRFIP1 / RFU, NDUFAF7 / Fold change vs veh, NDUFAF7 / RFU, SLC12A2 / Fold change vs veh, SLC12A2 / RFU, IBTK / Fold change vs veh, IBTK / RFU, ESF1 / Fold change vs veh, ESF1 / Fold change vs veh, TMEM50B / RFU, TAOK1 / Fold change vs veh, TAOK1 / RFU, ACBD3 / Fold change vs veh, ACBD3 / RFU, TMA16 / Fold change vs veh, TMA16 / RFU, RWDD3 / Fold change vs veh, RWDD3 / RFU, BCAT1 / Fold change vs veh, BCAT1 / RFU, EDEM3 / Fold change vs veh, EDEM3 / RFU, TMEM33 / Fold change vs veh, TMEM33 / RFU, WDR75 / Fold change vs veh, WDR75 / RFU, AHCTF1 / Fold change vs veh, AHCTF1 / RFU, TFRC / Fold change vs veh, TFRC / RFU, ZDHHC17 / Fold change vs veh, ZDHHC17 / RFU, NOM1 / Fold change vs veh, NOM1 / RFU, ARL8B / Fold change vs veh, ARL8B / RFU, ZBTB11 / Fold change vs veh, ZBTB11 / RFU, TAMM41 / Fold change vs veh, TAMM41 / RFU, KIAA1704 /// LOC100996395 / Fold change vs veh, KIAA1704 /// LOC100996395 / RFU, ING1 / Fold change vs veh, ING1 / RFU, TRMT61B / Fold change vs veh, TRMT61B / RFU, FUBP3 / Fold change vs veh, FUBP3 / RFU, TP53 / Fold change vs veh, TP53 / RFU, TNKS2 / Fold change vs veh, TNKS2 / RFU, ZFP14 / Fold change vs veh, ZFP14 / RFU, ACTR2 / Fold change vs veh, ACTR2 / RFU, PPP3R1 / Fold change vs veh, PPP3R1 / RFU, PIK3R1 / Fold change vs veh, PIK3R1 / RFU, HNRNPA1 / Fold change vs veh, HNRNPA1 / RFU, RNF170 / Fold change vs veh, RNF170 / RFU, ZNF28 / Fold change vs veh, ZNF28 / RFU, RNGTT / Fold change vs veh, RNGTT / RFU, OGT / Fold change vs veh, OGT / RFU, BRD1 / Fold change vs veh, BRD1 / RFU, MARS / Fold change vs veh, MARS / RFU, ZNF655 / Fold change vs veh, ZNF655 / RFU, FAHD1 / Fold change vs veh, FAHD1 / RFU, BDP1 / Fold change vs veh, BDP1 / RFU, LRRCC1 / Fold change vs veh, LRRCC1 / RFU, ARID1A / Fold change vs veh, ARID1A / RFU, ZNF146 / Fold change vs veh, ZNF146 / RFU, ZNF330 / Fold change vs veh, ZNF330 / RFU, GPN3 / Fold change vs veh, GPN3 / RFU, C9orf123 / Fold change vs veh, C9orf123 / RFU, N4BP2L2 / Fold change vs veh, N4BP2L2 / RFU, ARFIP1 / Fold change vs veh, ARFIP1 / RFU, FAM179B / Fold change vs veh, FAM179B / RFU, BCL10 / Fold change vs veh, BCL10 / RFU, UHRF1BP1L / Fold change vs veh, UHRF1BP1L / RFU, BET1 / Fold change vs veh, BET1 / RFU, CNOT2 / Fold change vs veh, CNOT2 / RFU, ZNF268 / Fold change vs veh, ZNF268 / Fold change vs veh, ZNF507 / RFU, DGCR2 / Fold change vs veh, DGCR2 / RFU, WDSUB1 / Fold change vs veh, WDSUB1 / Fold change vs veh, HSP90B1 /// MIR3652 / RFU, ADSS / Fold change vs veh, ADSS / RFU, GK / Fold change vs veh, GK / RFU, ZNF148 / Fold change vs veh, ZNF148 / RFU, TAF9 / Fold change vs veh, TAF9 / RFU, SLC1A5 / Fold change vs veh, SLC1A5 / RFU, SLMO2 / Fold change vs veh, SLMO2 / RFU, ABCC4 / Fold change vs veh, ABCC4 / RFU, LOC101060439 /// RAP1B / Fold change vs veh, LOC101060439 /// RAP1B / RFU, RFX7 / Fold change vs veh, RFX7 / RFU, GTPBP10 / Fold change vs veh, GTPBP10 / RFU, CNEP1R1 / Fold change vs veh, CNEP1R1 / RFU, BIVM-ERCC5 /// ERCC5 / Fold change vs veh, BIVM-ERCC5 /// ERCC5 / RFU, ILF3 / Fold change vs veh, ILF3 / RFU 11762660_at / Fold change /veh 11762660_at / RFU VCAN (11757783_s_at) / Fold change /veh VCAN (11757783_s_at) / RFU DDX43 (11728927_at) / Fold change /veh DDX43 (11728927_at) / RFU KRT8 (11758188_x_at) / Fold change /veh KRT8 (11758188_x_at) / RFU NKD1 (11759106_at) / Fold change /veh NKD1 (11759106_at) / RFU SRD5A1 (11742802_a_at) / Fold change /veh SRD5A1 (11742802_a_at) / RFU TPSAB1 /// TPSB2 (11721975_s_at) / Fold change /veh TPSAB1 /// TPSB2 (11721975_s_at) / RFU GSTM3 (11746129_a_at) / Fold change /veh GSTM3 (11746129_a_at) / RFU IL23R (11737362_x_at) / Fold change /veh IL23R (11737362_x_at) / RFU TMEM51 (11727254_a_at) / Fold change /veh TMEM51 (11727254_a_at) / RFU PIWIL2 (11732686_x_at) / Fold change /veh PIWIL2 (11732686_x_at) / RFU ORM1 (11744905_x_at) / Fold change /veh ORM1 (11744905_x_at) / RFU CCDC152 (11743942_at) / Fold change /veh CCDC152 (11743942_at) / RFU ECM1 (11717891_a_at) / Fold change /veh ECM1 (11717891_a_at) / RFU IL23R (11748794_a_at) / Fold change /veh IL23R (11748794_a_at) / RFU TNFAIP8L3 (11732012_x_at) / Fold change /veh TNFAIP8L3 (11732012_x_at) / RFU MBOAT4 (11741988_at) / Fold change /veh MBOAT4 (11741988_at) / RFU 11764193_at / Fold change /veh 11764193_at / RFU TMEM53 (11763286_at) / Fold change /veh TMEM53 (11763286_at) / RFU MAGEB2 (11727129_at) / Fold change /veh MAGEB2 (11727129_at) / RFU TMEM200A (11744735_a_at) / Fold change /veh TMEM200A (11744735_a_at) / RFU CCDC152 (11751479_a_at) / Fold change /veh CCDC152 (11751479_a_at) / RFU FAM211A (11726209_a_at) / Fold change /veh FAM211A (11726209_a_at) / RFU RGS16 (11746705_a_at) / Fold change /veh RGS16 (11746705_a_at) / RFU VCAN (11755009_s_at) / Fold change /veh VCAN (11755009_s_at) / RFU RHOB (11743442_s_at) / Fold change /veh RHOB (11743442_s_at) / RFU RGS16 (11720943_a_at) / Fold change /veh RGS16 (11720943_a_at) / RFU RGS16 (11720944_at) / Fold change /veh RGS16 (11720944_at) / RFU, VPS4B / Fold change vs veh, VPS4B / RFU, CREB1 / Fold change vs veh, CREB1 / RFU, DNAJC13 / Fold change vs veh, DNAJC13 / RFU, GNAQ / Fold change vs veh, GNAQ / RFU, CDK5R1 / Fold change vs veh, CDK5R1 / RFU, ZRANB3 / Fold change vs veh, ZRANB3 / RFU, CUL4A / Fold change vs veh, CUL4A / RFU, CCNY / Fold change vs veh, CCNY / RFU, UFL1 / Fold change vs veh, UFL1 / RFU, COG3 / Fold change vs veh, COG3 / RFU, DIAPH2 / Fold change vs veh, DIAPH2 / RFU, SKA2 / Fold change vs veh, SKA2 / RFU, AFF3 / Fold change vs veh, AFF3 / RFU, LMF1 / Fold change vs veh, LMF1 / RFU, IPO11 / Fold change vs veh, IPO11 / RFU, DFFB / Fold change vs veh, DFFB / RFU, FOXP1 / Fold change vs veh, FOXP1 / RFU, CARD8 / Fold change vs veh, CARD8 / RFU, STRN3 / Fold change vs veh, STRN3 / RFU, ADK / Fold change vs veh, ADK / RFU, RASSF2 / Fold change vs veh, RASSF2 / RFU, WIPF1 / Fold change vs veh, WIPF1 / RFU, LARP1B / Fold change vs veh, LARP1B / RFU, RASA1 / Fold change vs veh, RASA1 / RFU, RB1 / Fold change vs veh, RB1 / RFU, PPFIA1 / Fold change vs veh, PPFIA1 / RFU, MAT2A / Fold change vs veh, MAT2A / RFU, CCT5 / Fold change vs veh, CCT5 / RFU, WDR92 / Fold change vs veh, WDR92 / RFU, CUX1 / Fold change vs veh, CUX1 / RFU, TTC7A / Fold change vs veh, TTC7A / RFU, TMEM135 / Fold change vs veh, TMEM135 / RFU, DEPTOR / Fold change vs veh, DEPTOR / RFU, CPM / Fold change vs veh, CPM / RFU, DNAJB6 / Fold change vs veh, DNAJB6 / RFU, CACNA2D3 / Fold change vs veh, CACNA2D3 / RFU, DTX4 / Fold change vs veh, DTX4 / RFU, TFCP2 / Fold change vs veh, TFCP2 / RFU, GMCL1 /// GMCL1P1 / Fold change vs veh, GMCL1 /// GMCL1P1 / RFU, AEBP2 / Fold change vs veh, AEBP2 / RFU, SNHG1 /// SNORD22 /// SNORD25 /// SNORD26 /// SNORD27 /// SNORD28 /// SNORD29 /// SNORD31 / Fold change vs veh, SNHG1 /// SNORD22 /// SNORD25 /// SNORD26 /// SNORD27 /// SNORD28 /// SNORD29 /// SNORD31 / Fold change (Aza/veh), C12orf56 (ProbeSet 11735607_a_at) / Fold change (ACY-1035/veh), C12orf56 (ProbeSet 11735607_a_at) / Fold change (Aza/veh), FGFR1OP (ProbeSet 11751329_s_at) / Fold change (ACY-1035/veh), FGFR1OP (ProbeSet 11751329_s_at) / Fold change (Aza/veh), VPS36 (ProbeSet 11739960_a_at) / Fold change (ACY-1035/veh), VPS36 (ProbeSet 11739960_a_at) / RFU SYPL1 (11715823_x_at) / Fold change /veh SYPL1 (11715823_x_at) / RFU IGFBP7 (11715501_s_at) / Fold change /veh IGFBP7 (11715501_s_at) / RFU REEP3 (11722064_at) / Fold change /veh REEP3 (11722064_at) / RFU IGLL1 (11728026_x_at) / Fold change /veh IGLL1 (11728026_x_at): dose or concentration left out as unconfirmed
Details: ProbeSet 11755159_a_at; LIST D

In the case of `Nc1ncn([C@@H]2O[C@H](CO)[C@@H](O)[C@H]2O)c(=O)n1` [azacitidine], the “Fold change vs veh, COG3” value is reported as 0.82.
